Source: article PMC12947280, “An Antifungal with a Novel Mechanism of Action Discovered via Resistance Gene-Guided Genome Mining” (ACS Central Science, 2026)

Assays:
[1] = target: T1, S. cerevisiae ALS wild type (Saccharomyces cerevisiae, UniProt P07342); test: ALS biochemical assay (ScALS), wild type
T1 construct: made in house; host or cells: E. coli BL21 (DE3), pET28a-ScILV2
Protocol: (§1) ALS biochemical assay (ScALS)
(§2) Saccharomyces cerevisiae acetohydroxyacid synthase (ScALS) lacking the N-terminal […]
(§3) Escherichia coli as an N-terminally His6-tagged protein. Assays (50 µL final volume) contained […]
(§4) adenine dinucleotide, 10 mM MgCl2, 1 mM DTT, 1% DMSO (± inhibitor) in 500 mM K2HPO4 buffer at pH 7.5. Following a 30 min pre-incubation of the enzyme and inhibitor in the reaction mixture at room temperature, reactions were initiated with the addition of pyruvate. ScALS assays were carried out at 30 °C for 60 min. The reaction was quenched with the addition of 5 µL of 10% H2SO4 (v/v in deionized water). Reactions were incubated at 60 °C at 800 rpm in an […]
(§5) to acetoin. Subsequently, the concentration of acetoin was determined by the addition of 7.5 µL 6 M NaOH, 25 µL 0.5% creatine (w/v in deionized water), and 25 µL 4% 1-naphthol (w/v in 2.5 M NaOH). This mixture was incubated at 60 °C at 800 rpm in an incubating microplate shaker for […]
(§6) 40 µL of this reaction mixture was transferred to a half area UV-star 96-well plate (Grenier) and the absorbance at 525 nm was measured on a Spark multimode plate reader (Tecan). The percent inhibition was calculated by the comparison of the signal to DMSO (0% […]
(§7) IC50 values were calculated from the dose response curves using Prism 9 (four parameter, variable slope). […]
(§8) Expression and purification of ScALS
(§9) S. cerevisiae ILV2 (the gene or ScALS) lacking the N-terminal mitochondrial-localization tag

S. cerevisiae ALS P192S = target: T2, S. cerevisiae ALS P192S (Saccharomyces cerevisiae, UniProt P07342, P192S); test: biochemical; type: biochemical
T2 construct: His6 (followed by a TEV protease site, pET28a) (N); made in house; host or cells: E. coli (inferred from the ScALS method)
Protocol: as §1, §2, §3, §4, §5, §6, §7, §8, §9

C. albicans ALS = C. albicans ALS (Candida albicans, UniProt A0A1D8PJF9); test: ALS biochemical assay (CaALS)
A. fumigatus = test: Inhibition of A. fumigatus growth; type: cell-based; conditions: Aspergillus fumigatus
[2] = Liver microsome stability, mouse; type: in vitro ADME; conditions: mouse liver microsomes; read-out: Liver microsome t1/2 Mouse
[3] = Liver microsome stability, human; type: in vitro ADME; conditions: human liver microsomes; read-out: Liver microsome t1/2 Human
S. cerevisiae ALS = target: T3, S. cerevisiae ALS (Saccharomyces cerevisiae, UniProt P07342); test: FAD cofactor reoxidation upon incubation with ALS; type: biochemical; conditions: in contrast to accumulative inhibitors 2 and 3
T3 construct: made in house; host or cells: E. coli BL21 (DE3), pET28a-ScILV2

ScALS = target: T4, ScALS (Saccharomyces cerevisiae, UniProt P07342); test: Intact protein mass spectrometry; type: binding; conditions: 10 μM, 30 min
T4 construct: made in house; host or cells: E. coli BL21 (DE3), pET28a-ScILV2
From the text: (§10) We next characterized the structural basis for binding of 1 to ALS. Given the strained structure and the observed tight binding kinetics, we hypothesized that 1 may be binding covalently. Analysis of ALS from both AfALS and ScALS by intact protein mass spectrometry yielded traces with multiple proteoforms for both proteins. […] Limited proteolysis followed by peptide mapping localized the covalent attachment to the 239[…]258 peptide of ScALS with Lys251 and Asp252 (equivalent to Lys310 and Asp311 in AfALS) serving as the most likely attachment sites (Figure S7).
Biomek FX, Beckman Coulter Fullerton CA) were used to conduct serial dilutions and liquid […]
Solutions of 1 were added in an 11 point 2x serial dilution in DMSO with a maximum tested concentration of 32 μg/ml in the culture medium. Drug solution was added at 1% v/v into 200 μl […]
After digestion, the peptide mixture was immediately analysed by LC-MS/MS using a Waters I-class UPLC equipped with an ACQUITY UPLC BEH C18 column (2.1x50 mm, 1.7 µm, Waters) at 50 °C coupled to a Waters Synapt G2Si MS. […]

AfALS = test: Intact protein mass spectrometry; type: binding, Aspergillus fumigatus; conditions: 10 μM, 30 min
From the text: as §10

physchem = conditions: buffer, pH 7.4

T2 sequence (P07342 58-687 P192S): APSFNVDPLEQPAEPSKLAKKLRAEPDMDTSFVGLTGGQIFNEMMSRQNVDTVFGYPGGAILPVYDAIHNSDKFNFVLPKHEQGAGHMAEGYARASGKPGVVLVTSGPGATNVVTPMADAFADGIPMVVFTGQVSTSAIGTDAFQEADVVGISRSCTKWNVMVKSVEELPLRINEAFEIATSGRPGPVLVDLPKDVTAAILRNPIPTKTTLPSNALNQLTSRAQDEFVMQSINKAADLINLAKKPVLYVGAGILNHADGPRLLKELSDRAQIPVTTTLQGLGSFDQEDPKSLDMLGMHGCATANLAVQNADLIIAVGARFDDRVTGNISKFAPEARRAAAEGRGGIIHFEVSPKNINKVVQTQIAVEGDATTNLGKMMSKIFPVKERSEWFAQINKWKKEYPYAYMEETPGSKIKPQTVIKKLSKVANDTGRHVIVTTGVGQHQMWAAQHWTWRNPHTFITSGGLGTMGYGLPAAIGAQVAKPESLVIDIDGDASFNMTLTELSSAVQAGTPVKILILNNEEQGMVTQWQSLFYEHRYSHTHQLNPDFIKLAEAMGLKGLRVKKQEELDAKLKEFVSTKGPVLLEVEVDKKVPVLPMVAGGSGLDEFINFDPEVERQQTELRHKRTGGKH
T1 sequence (P07342 58-687): as the sequence (P07342 58-687 P192S) above, with S135P counted along it
C. albicans ALS, sequence (A0A1D8PJF9 entry or part of it): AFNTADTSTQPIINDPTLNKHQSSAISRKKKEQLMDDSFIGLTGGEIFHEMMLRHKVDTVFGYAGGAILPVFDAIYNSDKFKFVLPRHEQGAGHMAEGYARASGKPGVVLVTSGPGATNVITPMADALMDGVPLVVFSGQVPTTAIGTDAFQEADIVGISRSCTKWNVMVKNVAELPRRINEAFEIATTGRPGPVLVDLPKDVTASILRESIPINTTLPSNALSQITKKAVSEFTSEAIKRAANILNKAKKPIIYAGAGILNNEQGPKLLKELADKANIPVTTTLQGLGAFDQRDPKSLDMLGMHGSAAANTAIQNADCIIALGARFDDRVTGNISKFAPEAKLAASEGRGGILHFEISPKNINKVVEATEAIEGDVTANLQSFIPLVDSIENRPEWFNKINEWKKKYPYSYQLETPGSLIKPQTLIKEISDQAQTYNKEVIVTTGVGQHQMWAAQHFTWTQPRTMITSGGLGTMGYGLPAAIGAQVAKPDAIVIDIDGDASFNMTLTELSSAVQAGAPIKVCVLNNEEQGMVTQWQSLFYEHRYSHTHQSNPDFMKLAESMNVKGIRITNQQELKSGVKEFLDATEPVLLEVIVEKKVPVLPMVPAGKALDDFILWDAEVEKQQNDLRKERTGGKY
T3 sequence (P07342 58-687): as the sequence (P07342 58-687 P192S) above, with S135P counted along it
T4 sequence (P07342 58-687): as the sequence (P07342 58-687 P192S) above, with S135P counted along it

With `CCCC1C(C)=CC2CC=CC3(C)C2C1C(=O)C31C(=O)NC(CCCO)C1=O` (stereo not shown) [compound 1] the “potency against ScALS compared with diastereomer 13” value ([1]; Figure S6) was “significantly more potent”, the IC50 ([1]; recombinant ScALS, read-out: S. cerevisiae ALS IC50 Wild type) was 15 ± 1 nM and the IC50 (S. cerevisiae ALS P192S) was 66 ± 9 nM. For the same molecule, the “shift in potency, P192S mutant ScALS compared to wild-type ScALS” value (S. cerevisiae ALS P192S) was 4 fold, the IC50 (C. albicans ALS) was 60 ± 10 nM and the EC50 (A. fumigatus; read-out: A. fumigatus growth inhibition EC50 (Figure 4A)) was 700 ± 500 nM. For the same molecule, the IC50 (A. fumigatus; read-out: A. fumigatus growth inhibition IC50) was 700 nM, the half-life [2] was 3 min and the half-life [3] was 3 min. The “FAD reoxidation upon treatment” value (S. cerevisiae ALS) was “no indication of FAD reoxidation”, the “covalent modification of ScALS (intact mass shift)” value (ScALS) was “mass shifts consistent with covalent addition” and the “covalent modification of AfALS (intact mass shift)” value (AfALS) was “mass shifts consistent with covalent addition”. For the same molecule, the half-life (physchem) was 141 min.
